Where a name gives a salt, the structure may show the parent alone.
Tested on: SMN protein
Assay: cellular SMN ELISA (SMN protein elevation)
Type: cell-based
Conditions: myoblast cell line derived from SMNdelta7 mouse model; 24 hours compound treatment; concentration range 100 pM-10 uM
Outline: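 Myoblasts derived from the SMNdelta7 mouse model, 3000 cells/well, treated with compound (100 pM–10 uM) for 24 h, then lysed in modified RIPA buffer. SMN protein quantified by sandwich ELISA (anti-SMN mAb capture, rabbit polyclonal detection, HRP/TMB, 450 nm). Results given as fold activation over DMSO and EC50.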

Structure (SMILES): CN1C[C@@H]2CN(c3nnc(-c4ccc(-c5cnn(C)c5)cc4Cl)s3)C[C@@H]2C1 [Example 79, 2-(2-chloro-4-(1-methyl-1H-pyrazol-4-yl)phenyl)-5-((3aR,6aS)-5-methylhexahydropyrrolo[3,4-c]pyrrol-2(1H)-yl)-1,3,4-thiadiazole]
- EC50: 150 nM
- SMN Activity Fold (fold activation over DMSO control): 2.76 fold

Structure (SMILES): OC[C@H]1CN(c2nnc(-c3ccc(-c4cn[nH]c4)cc3Cl)s2)CCN1 [Example 107, (R)-(4-(5-(2-chloro-4-(1H-pyrazol-4-yl)phenyl)-1,3,4-thiadiazol-2-yl)piperazin-2-yl)methanol•Hydrochloride Salt]
- EC50: 4540 nM
- SMN Activity Fold (fold activation over DMSO control): 2.06 fold

Structure (SMILES): COc1c(-c2nnc(N(C)C3CC(C)(C)NC(C)(C)C3)s2)c(=O)n(C)c2ccccc12 [Example 101, 4-methoxy-1-methyl-3-(5-(methyl(2,2,6,6-tetramethylpiperidin-4-yl)amino)-1,3,4-thiadiazol-2-yl)quinolin-2(1H)-one]
- EC50: 742 nM
- SMN Activity Fold (fold activation over DMSO control): 2.51 fold

Structure (SMILES): COc1cc(-c2cn[nH]c2)ccc1-c1nnc(N(C)C2CC(C)(C)NC(C)(C)C2)s1 [Example 7, 5-(2-Methoxy-4-(1H-pyrazol-4-yl)phenyl)-N-methyl-N-(2,2,6,6-tetramethylpiperidin-4-yl)-1,3,4-thiadiazol-2-amine]
- EC50: 38 nM
- SMN Activity Fold (fold activation over DMSO control): 2.86 fold

Structure (SMILES): Cc1cc(-c2cnn(C)c2)ccc1-c1nnc(N(C)C2CC(C)(C)NC(C)(C)C2)s1 [Example 11, N-Methyl-5-(2-methyl-4-(1-methyl-1H-pyrazol-4-yl)phenyl)-N-(2,2,6,6-tetramethylpiperidin-4-yl)-1,3,4-thiadiazol-2-amine]
- EC50: 684 nM
- SMN Activity Fold (fold activation over DMSO control): 2.84 fold

Structure (SMILES): COc1cc(C#N)ccc1-c1nnc(N(C)C2CC(C)(C)NC(C)(C)C2)s1 [Example 33, 3-methoxy-4-(5-(methyl(2,2,6,6-tetramethyl-piperidin-4-yl)amino)-1,3,4-thiadiazol-2-yl) benzonitrile]
- EC50: 1040 nM
- SMN Activity Fold (fold activation over DMSO control): 2.16 fold

Structure (SMILES): CN(C)CC1CN(c2nnc(-c3ccc(-c4cn[nH]c4)cc3Cl)s2)CCO1 (centres unmarked) [Example 82, 1-(4-(5-(2-chloro-4-(1H-pyrazol-4-yl)phenyl)-1,3,4-thiadiazol-2-yl)morpholin-2-yl)-N,N-dimethylmethanamine]
- EC50: 994 nM
- SMN Activity Fold (fold activation over DMSO control): 2.50 fold

Reference: US9040712B2, “Thiadiazole analogs thereof and methods for treating SMN-deficiency-related-conditions” (NOVARTIS AG, priority 2013, dated 2015)
